Results published in patent publication US6172185A, “Antimicrobial cationic peptide derivatives of bactenecin” (priority 1998, dated 2001).
Where a SMILES comes first, the peptide text is derived from it. Where no end group is shown, it is not given here.

Columns and labels:
E. coli UB1005 = assay: Outer membrane permeabilization, NPN uptake assay; type: cell-based, Escherichia coli; conditions: FIG. 3
Description: Mid-log phase E. coli cells were collected and incubated with NPN in the presence of various concentrations of bactenecin (oxidized), bac2S, bactenecin (reduced). NPN was taken up into cells when the outer membrane was disrupted by the peptides. The uptake of NPN was measured by the increase of fluorescence. Polymyxin B: -.quadrature.-; Bactenecin: -+-; Bac2S: -o-; Bactenecin (Reduced): -.gradient.-
The ability of peptides to permeabilize the outer membrane was determined by the NPN assay of Loh et al. (Loh et al., Antimicrob. Agents Chemother. 19:777, 1984). Cytoplasmic membrane permeabilization was determined by using the membrane potential sensitive cyanine dye DiS-C3-(5) (Sims et al., Biochemistry 13:3315, 1974). […] The cell suspension was incubated with […] DiS-C3-(5) until DiS-C3-(5) uptake was maximal (as indicated by a stable reduction in fluorescence due to fluorescence quenching as the dye became concentrated in the cell by the membrane potential), and 100 mM KCl was added to equilibrate the cytoplasmic and external K+ concentration. […] The fluorescence reading was monitored by using a Perkin-Elmer model 650-10 S fluorescence spectrophotometer (Perkin-Elmer Corp. Norwalk, Conn.), with an excitation wavelength of 622 nm and an emission wavelength of 670 nm. […]

E. coli DC2 = type: cell-based, Escherichia coli; conditions: E. coli DC2, 0.1M KCl
Description: The minimal inhibitory concentration (MIC) of peptides was determined by a modified two-fold microtitre broth dilution method modified from that of Steinberg et al (Steinberg, Antimicrob. Agents Chemother. 41:1738, 1997). Using the classical method (Amsterdam, Antibiotics in Laboratory Medicine (Lorian, V., ed) pp. 72-78, 1991), higher concentrations of peptides tend to precipitate in the LB broth, thus the concentrations of peptides in the sequential wells are not accurate. Also the peptides stick to the most readily available (tissue-culture treated polystyrene) 96-well microtitre plates. Therefore the 2× series of dilutions was performed in Eppendoff tubes (polypropylene) before mixing with LB broth. Serial of two fold dilutions of peptides ranging from 640 μg/ml to 1.25 μg/ml were made in 0.2% BSA, 0.01% acetic acid buffer in the Eppendoff tubes. Ten μl of each concentration was added to each corresponding well of a 96-well microtiter plate (polypropylene cluster; Costar Corporation, Cambridge, Mass.). Bacteria were grown overnight and diluted 10-5 into fresh LB broth or Todd Hewitt broth for Streptococcus. LB medium contained 10 g/1l tryptone and 5 g/yeast extract, with no salt. Todd Hewitt contained 500 g/l beef heart infusion, 20 g/l bacto neopeptone, 2 g/l bacto dextrose, 2 g/l sodium chloride, 0.4 g/l disodium phosphate, 2.5 g/l sodium carbonate. One hundred […] containing about 10^4-10^5 CFU/ml of tested bacteria was added to each well. […]
It has been proposed that the antibacterial target of cationic peptides be at the cytoplasmic membrane. […] Once inside the cells, diS-C3-(5) becomes concentrated and self-quenches its own fluorescence. If peptides form channels or otherwise disrupt the membrane, the membrane potential will be dissipated, and the DiS-C3-(5) will be released into the medium causing the fluorescence to increase, as can be detected by fluorescent spectrometry. […] Therefore the MICs of bactenecin, reduced bactenecin and bac2S in the presence of 0.1M KCl were determined and shown to be 8-16 μg/ml (i.e. 4 to 8 fold higher than in low salt). […]

Staph. epidermidis = assay: MIC, modified two-fold microtitre broth dilution; type: cell-based, Staphylococcus epidermidis
From the text: (§1) Bacterial strains for antimicrobial activity testing included Escherichia coli UB1005 and its antibiotic supersusceptible derivative DC2 (Richmond et al., Antimicrob. Agents Chemother. 10:215, 1976), Pseudomonas aeruginosa K799 and its antibiotic-supersusceptible derivative Z61 (Angus et al., Antimicrob. Agents Chemother. 21:299, 1982), Salmonella typhimurium 14028s and its defensin-supersusceptible derivative MS7953s (Fields et al., Science, 243:1059, 1989), Staphylococcus aureus ATCC25923 and a clinical isolate Staphylococcus aureus SAP1007. Other Gram-positive bacterial strains include Staphylococcus epidermidis (clinical isolate) and Enterococcus faecalis ATCC29212, Listeria monocytogenes, Corynebacterium xerosis, Streptococcus pneumoniae ATTC49619, Streptococcus pyogenes ATTC19615, Streptococcus mitis.
(§2) The minimal inhibitory concentration (MIC) of peptides was determined by a modified two-fold microtitre broth dilution method modified from that of Steinberg et al (Steinberg, Antimicrob. Agents Chemother. 41:1738, 1997). Using the classical method (Amsterdam, Antibiotics in Laboratory Medicine (Lorian, V., ed) pp. 72-78, 1991), higher concentrations of peptides tend to precipitate in the LB broth, thus the concentrations of peptides in the sequential wells are not accurate. Also the peptides stick to the most readily available (tissue-culture treated polystyrene) 96-well microtitre plates. Therefore the 2× series of dilutions was performed in Eppendoff tubes (polypropylene) before mixing with LB broth. Serial of two fold dilutions of peptides ranging from 640 μg/ml to 1.25 μg/ml were made in 0.2% BSA, 0.01% acetic acid buffer in the Eppendoff tubes. Ten μl of each concentration was added to each corresponding well of a 96-well microtiter plate (polypropylene cluster; Costar Corporation, Cambridge, Mass.). Bacteria were grown overnight and diluted 10-5 into fresh LB broth or Todd Hewitt broth for Streptococcus. LB medium contained 10 g/1l tryptone and 5 g/yeast extract, with no salt. Todd Hewitt contained 500 g/l beef heart infusion, 20 g/l bacto neopeptone, 2 g/l bacto dextrose, 2 g/l sodium chloride, 0.4 g/l disodium phosphate, 2.5 g/l sodium carbonate. One hundred […] containing about 10^4-10^5 CFU/ml of tested bacteria was added to each well. The plate was incubated at 37° C. overnight. The MIC was taken as the concentration at which greater than 90% of growth inhibition was observed.

Strep. mitis = assay: MIC, modified two-fold microtitre broth dilution; type: cell-based, Streptococcus mitis; conditions: for MIC Strep. mitis: Table IID, linear (Group 2): reduced forms of the peptides, Bac (Oxidized) as comparator
From the text: as §1, §2

Strep. pyogenes = assay: MIC, modified two-fold microtitre broth dilution; type: cell-based, Streptococcus pyogenes; conditions: for MIC Strep. pyogeness: Table IID, linear (Group 2): reduced forms of the peptides, Bac (Oxidized) as comparator
From the text: as §1, §2

E.coli UB1005 = assay: MIC, modified two-fold microtitre broth dilution; type: cell-based, Escherichia coli
From the text: as §1, §2

Staph. aureus = assay: MIC, modified two-fold microtitre broth dilution; type: cell-based, Staphylococcus aureus
From the text: as §1, §2

P.aeruginosa = assay: MIC, modified two-fold microtitre broth dilution; type: cell-based, Pseudomonas aeruginosa
From the text: as §1, §2

Strep. pneumoniae = assay: MIC, modified two-fold microtitre broth dilution; type: cell-based, Streptococcus pneumoniae; conditions: for MIC Strep. pneumonia: Table IID, linear (Group 2): reduced forms of the peptides, Bac (Oxidized) as comparator
From the text: as §1, §2

C. xerosis = assay: MIC, modified two-fold microtitre broth dilution; type: cell-based, Corynebacterium xerosis
From the text: as §1, §2

S.typhimurium = assay: MIC, modified two-fold microtitre broth dilution; type: cell-based, Salmonella typhimurium
From the text: as §1, §2

E.facaelis = assay: MIC, modified two-fold microtitre broth dilution; type: cell-based, Enterococcus faecalis
From the text: as §1, §2

Listeria monocytogenes = assay: MIC, modified two-fold microtitre broth dilution; type: cell-based
From the text: as §1, §2

[1] = test system: rat embryonic neurons, fetal rat astrocytes and human glioblastoma cells; conditions: cited from earlier work
[2] = Table IID, linear (Group 2): reduced forms of the peptides, Bac (Oxidized) as comparator
[3] = Table IVB, non-linear hydrophobicity modification derivatives
[4] = Table IIC, linear (Group 2): reduced forms of the peptides, Bac (Oxidized) as comparator
[5] = Table IVA, non-linear hydrophobicity modification derivatives
[6] = Table IIIB, non-linear positive-charge modification derivatives
[7] = table IIA, non-linear positive-charge modification derivatives

Polymyxin B
concentration permeabilizing the outer membrane to 50% of maximal increase in fluorescence (NPN) (E. coli UB1005): 0.4 mg/mL

CC[C@H](C)[C@H](NC(=O)[C@H](CCCNC(=N)N)NC(=O)[C@H](CS)NC(=O)[C@H](CC(C)C)NC(=O)[C@@H](N)CCCNC(=N)N)C(=O)N[C@H](C(=O)N[C@H](C(=O)N[C@H](C(=O)N[C@@H](CCCNC(=N)N)C(=O)N[C@H](C(=O)N[C@@H](CS)C(=O)N[C@@H](CCCNC(=N)N)C(=O)O)C(C)C)[C@@H](C)CC)C(C)C)C(C)C [Bac (Reduced), RLCRIVVIRVCR] (H-RLCRIVVIRVCR-OH)
Minimal Agglutinating Concentration, Oxidized Form (Human Red Blood Cells): 16 µg/mL | concentration causing agglutination of human red blood cells (Human Red Blood Cells): 16000 to 32000 ng/mL | MIC in the presence of 0.1M KCl (E. coli DC2): 8 to 16 µg/mL

RLCRIVPVIRVCR [Bac P, tested oxidized and reduced]
MIC Staph. epidermidis (Staph. epidermidis; [2]): 16 µg/mL | MIC Staph. epidermidis (Staph. epidermidis; [3]): 64 µg/mL | MIC Strep. mitis (Strep. mitis): 2 µg/mL | MIC S. mitis (Strep. mitis; [3]): 4 µg/mL | MIC Strep. pyogeness (Strep. pyogenes): 32 µg/mL | MIC Strep. pyogenes (Strep. pyogenes; [3]): 64 µg/mL | MIC E.coli UB1005 (E.coli UB1005; [4]): 16 µg/mL | MIC E.coli UB1005 (E.coli UB1005; [5]): 32 µg/mL | Minimal Agglutinating Concentration, Oxidized Form (Human Red Blood Cells): 64 µg/mL | Minimal Agglutinating Concentration, Reduced Form (Human Red Blood Cells): 64 µg/mL | MIC Staph. aureus (Staph. aureus; [2]): > 64 µg/mL | MIC Staph. aureus (Staph. aureus; [3]): 64 µg/mL | MIC P. aeruginosa (P.aeruginosa; [4]): 32 µg/mL | MIC P. aeruginosa (P.aeruginosa; [5]): > 64 µg/mL | MIC Strep. pneumonia (Strep. pneumoniae): > 64 µg/mL | MIC S. pneumoniae (Strep. pneumoniae; [3]): > 64 µg/mL | MIC C. xerosis (C. xerosis; [2]): 2 µg/mL | MIC C. xerosis (C. xerosis; [3]): 8 µg/mL | MIC S. typhimurium (S.typhimurium; [4]): 64 µg/mL | MIC S. typhimurium (S.typhimurium; [5]): > 64 µg/mL | MIC E.facaelis (E.facaelis; [2]): 32 µg/mL | MIC E.facaelis (E.facaelis; [3]): > 64 µg/mL | MIC Listeria (Listeria monocytogenes; [2]): 4 µg/mL | MIC Listeria (Listeria monocytogenes; [3]): 2 µg/mL

KKCPIVVIRVCK [Bac 3K, P, tested oxidized and reduced]
MIC Staph. epidermidis (Staph. epidermidis; [2]): > 64 µg/mL | MIC Staph. epidermidis (Staph. epidermidis; [6]): > 64 µg/mL | MIC Strep. mitis (Strep. mitis): 0.25 µg/mL | MIC S. mitis (Strep. mitis; [6]): 2 µg/mL | MIC Strep. pyogeness (Strep. pyogenes): 64 µg/mL | MIC Strep. pyogenes (Strep. pyogenes; [6]): > 64 µg/mL | MIC E.coli UB1005 (E.coli UB1005; [4]): > 64 µg/mL | MIC E.coli UB1005 (E.coli UB1005; [7]): 16 µg/mL | Minimal Agglutinating Concentration, Oxidized Form (Human Red Blood Cells): > 64 µg/mL | Minimal Agglutinating Concentration, Reduced Form (Human Red Blood Cells): 64 µg/mL | MIC Staph. aureus (Staph. aureus; [2]): > 64 µg/mL | MIC Staph. aureus (Staph. aureus; [6]): > 64 µg/mL | MIC P. aeruginosa (P.aeruginosa; [4]): > 64 µg/mL | MIC P. aeruginosa (P.aeruginosa; [7]): > 64 µg/mL | MIC Strep. pneumonia (Strep. pneumoniae): > 64 µg/mL | MIC S. pneumonia (Strep. pneumoniae; [6]): > 64 µg/mL | MIC C. xerosis (C. xerosis; [2]): 4 µg/mL | MIC C. xerosis (C. xerosis; [6]): 16 µg/mL | MIC S. typhimurium (S.typhimurium; [4]): > 64 µg/mL | MIC S. typhimurium (S.typhimurium; [7]): 32 µg/mL | MIC E.facaelis (E.facaelis; [2]): > 64 µg/mL | MIC E.facaelis (E.facaelis; [6]): > 64 µg/mL | MIC Listeria (Listeria monocytogenes; [2]): 4 µg/mL | MIC Listeria (Listeria monocytogenes; [6]): 8 µg/mL

CC[C@H](C)[C@@H]1NC(=O)[C@H](CCCNC(=N)N)NC(=O)[C@@H](NC(=O)[C@H](CC(C)C)NC(=O)[C@@H](N)CCCNC(=N)N)CSSC[C@@H](C(=O)N[C@@H](CCCNC(=N)N)C(=O)O)NC(=O)[C@H](C(C)C)NC(=O)[C@H](CCCNC(=N)N)NC(=O)[C@H]([C@@H](C)CC)NC(=O)[C@H](C(C)C)NC(=O)[C@H](C(C)C)NC1=O [Bactenecin, RLCRIVVIRVCR] (HELM PEPTIDE1{R.L.C.R.I.V.V.I.R.V.C.R}$PEPTIDE1,PEPTIDE1,3:R3-11:R3$$$V2.0)
Minimal Agglutinating Concentration, Oxidized Form (Human Red Blood Cells): 64 µg/mL | cytotoxicity [1]: strongly cytotoxic | MIC in the presence of 0.1M KCl (E. coli DC2): 8 to 16 µg/mL

RLSRIVVIRVSR [Bac 2S, RLSRIVVIRVSR]
Minimal Agglutinating Concentration, Oxidized Form (Human Red Blood Cells): > 64 µg/mL | MIC in the presence of 0.1M KCl (E. coli DC2): 8 to 16 µg/mL
